The text below walks through data of patent US10899852B2, “Benzil monoketals and the use thereof” (Merck Patent GmbH, priority 2015, dated 2021).

The structures appear in SMILES notation.

The data set is described as follows: storage test of polymerisable liquid-crystal mixture P-1 with sealant containing photoinitiator, then UV irradiation in PS-VA test cells; RM-1 concentration by HPLC. Conditions: inferred from RM-1 polymerisation after storage 7 d at 80° C. The protocol:
A polymerisable liquid-crystal mixture P-1 consisting of • 1. 99.7% by weight of the nematic liquid-crystal mixture M-1 and • 2. 0.3% by weight of the polymerisable compound RM-1
[drawing 37] is prepared. Three samples of in each case 0.5 g of mixture P-1 are stored together with in each case 1 g of the commercially available sealant Unocol 2094® (APM Technica GmbH, Pürgen-Ummendorf), the latter in each case containing • 1. no photoinitiator • 2. 3.0% by weight of the photoinitiator according to the invention from Example 1 • 3. 3.0% by weight of the commercially available photoinitiator Irgacure651® of the structure shown below in a tightly sealed vial at 80° C. for 7 d with exclusion of air and light. A fourth sample of mixture P-1 is stored under the same conditions without the presence of sealant (blank experiment).
The mixtures are subsequently separated off from the sealant, in each case divided into two parts, introduced into PS-VA test cells and irradiated with a metal halide UV lamp with an intensity of 100 mW/cm^2 at 40° C. for a duration of 60 s or 180 s.
The PS-VA test cells consist of two plane-parallel glass plates having a cell gap of 4 μm, each of which are coated with an ITO electrode and with a polyimide alignment layer on top.
After the irradiation, the concentration of the polymerisable compound RM-1 is determined by HPLC.

`COC(OC)(C(=O)c1ccc(OCC(O)CO)cc1)c1ccc(OCC(O)CO)cc1` (centres unmarked) [Example 1, 1,2-Bis[4-(2,3-dihydroxypropoxy)phenyl]-2,2-dimethoxyethanone]: the “photoinitiator dissolved out of the sealant into the liquid crystal during the storage test” value is listed as “no photoinitiator according to the invention has been dissolved out of the sealant”. For `COC(OC)(C(=O)c1ccccc1)c1ccccc1` [Irgacure651®] the value was “considerable amounts of photoinitiator have dissolved in the liquid-crystal mixture”.
